The source of these data is ChEMBL document CHEMBL5104135, “Potent and selective TYK2-JH1 inhibitors highly efficacious in rodent model of psoriasis” (Bioorg Med Chem Lett, 2022).

SMILES strings stand for the structures. ≈ marks a conversion by molar mass, not a printed value.

In data set [1] the target is Non-receptor tyrosine-protein kinase TYK2 (Homo sapiens, UniProt P29597).
Description: Inhibition of TYK2 JH1 domain (unknown origin) measured in presence of 10 uM ATP
The species named for data set [2] is Homo sapiens. Description: Ratio Ki for inhibition of JAK1 (unknown origin) over TYK2 JH1 domain (unknown origin).
Data set [3] is filed under the species Homo sapiens. Description: Ratio Ki for inhibition of JAK3 (unknown origin) over TYK2 JH1 domain (unknown origin).
Data set [4] is described as follows: Efflux ratio of apparent permeability in human Caco-2 cells. Background: Passage across Caco-2 layers is used to estimate intestinal permeability.
Data set [5] can be described thus: Kinetic solubility of compound at pH 7.4. The following applies: buffer.
The species entered for data set [6] is Homo sapiens. Description: Ratio Ki for inhibition of JAK2 (unknown origin) over TYK2 JH1 domain (unknown origin).
Data set [7] in a line: Plasma protein binding in human assessed as unbound fraction.
Data set [8] concerns Blood. Description: Inhibition of IL-12- induced IFN-gamma production in human whole blood. The following applies: for IC50: Homo sapiens, Blood. It is filed as functional, tissue-based.
Data set [9] is described as follows: Thermodynamic solubility in fasted simulated intestinal fluid. It is filed as physicochemical. To be noted: read-out: Therm_solubility.
Data set [10] in a line: Plasma protein binding in mouse assessed as unbound fraction.
Data set [11] deals with Blood. Description: Inhibition of IL-12- induced IFN-gamma production in mouse whole blood. The class given is functional, tissue-based. The following applies: for IC50: Mus musculus, Blood.
Data set [12] in a line: Thermodynamic solubility in simulated gastric fluid. It is filed as physicochemical. To be noted: read-out: Therm_solubility.

Chain of Non-receptor tyrosine-protein kinase TYK2 (P29597 whole entry, the tested form may be a part): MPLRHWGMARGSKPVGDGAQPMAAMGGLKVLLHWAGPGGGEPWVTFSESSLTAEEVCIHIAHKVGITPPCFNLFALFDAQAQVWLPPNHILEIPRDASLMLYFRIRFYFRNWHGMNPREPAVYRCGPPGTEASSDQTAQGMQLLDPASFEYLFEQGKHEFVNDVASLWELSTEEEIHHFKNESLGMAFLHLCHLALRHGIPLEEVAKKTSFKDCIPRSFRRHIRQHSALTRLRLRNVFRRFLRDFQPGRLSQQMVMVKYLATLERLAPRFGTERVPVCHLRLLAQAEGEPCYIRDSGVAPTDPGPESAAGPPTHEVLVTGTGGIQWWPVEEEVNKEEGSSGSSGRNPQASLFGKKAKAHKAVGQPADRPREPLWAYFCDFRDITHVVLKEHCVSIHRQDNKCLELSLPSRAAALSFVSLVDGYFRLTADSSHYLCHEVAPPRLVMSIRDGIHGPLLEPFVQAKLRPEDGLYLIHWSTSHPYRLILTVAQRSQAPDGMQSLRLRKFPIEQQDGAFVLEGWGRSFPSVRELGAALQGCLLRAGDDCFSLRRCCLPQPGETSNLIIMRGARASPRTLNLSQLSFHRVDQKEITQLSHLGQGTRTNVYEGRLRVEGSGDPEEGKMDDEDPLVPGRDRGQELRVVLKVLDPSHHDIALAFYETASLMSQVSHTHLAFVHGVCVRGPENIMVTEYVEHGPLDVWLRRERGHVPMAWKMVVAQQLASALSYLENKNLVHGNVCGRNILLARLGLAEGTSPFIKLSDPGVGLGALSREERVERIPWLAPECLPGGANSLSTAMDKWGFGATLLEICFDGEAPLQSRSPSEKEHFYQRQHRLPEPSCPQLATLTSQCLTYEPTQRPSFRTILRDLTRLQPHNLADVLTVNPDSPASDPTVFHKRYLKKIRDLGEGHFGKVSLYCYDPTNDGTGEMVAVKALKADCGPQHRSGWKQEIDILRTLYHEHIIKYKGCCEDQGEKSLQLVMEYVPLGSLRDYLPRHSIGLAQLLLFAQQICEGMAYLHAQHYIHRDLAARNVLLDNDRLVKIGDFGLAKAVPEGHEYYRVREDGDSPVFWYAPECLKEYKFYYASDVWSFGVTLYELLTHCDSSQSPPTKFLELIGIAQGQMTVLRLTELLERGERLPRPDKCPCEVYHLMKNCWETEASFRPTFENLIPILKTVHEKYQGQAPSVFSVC

What is called Ki is a measure of affinity in units of concentration, obtained from inhibition or displacement. On to `CCNC(=O)C(C)(O)c1ccc(Nc2nc(-c3c(F)cccc3F)nc3c2C(=O)NC3)cc1` (stereo in doubt; 13b) [listing 1 of 2 here], for which, in [1], affinity was put at a Ki of 3.4 nM.

Broadly, the efflux ratio is the permeability from basolateral to apical divided by that in the opposite direction, in the common usage. In general, solubility (kinetic) refers to the concentration staying in solution when a stock, usually in DMSO, is diluted into the medium. Turning to `O=C1NCc2nc(-c3c(F)cccc3F)cc(Nc3ccc(N4CCOCC4)cn3)c21`, the Ratio Ki in the data set filed under Homo sapiens [2] is 160; in the data set listed under Homo sapiens [3], 25; in the data set filed under Homo sapiens [6] it was 120. The efflux ratio in data set [4] came out at 0.58. The solubility (kinetic) in data set [5] amounted to 12 µM (≈ 5.08 µg/mL).

For the compound `O=C1NCc2nc(-c3c(F)cccc3F)cc(Nc3ccc(N4CCC(F)(F)CC4)cn3)c21`, the Ratio Ki is 400 in the data set filed under Homo sapiens [2], 32 in the data set filed under Homo sapiens [3] and 370 in the data set filed under Homo sapiens [6]. The efflux ratio in [4] came to 0.68. In addition, in data set [5], the solubility (kinetic) is 2.4 µM (≈ 1.1 µg/mL).

Consider `O=C1NCc2nc(-c3c(F)cccc3F)nc(Nc3ccc(CC(=O)N4CCN(CC(F)F)CC4)cc3)c21`, for which the Ratio Ki was determined as 31 in the data set filed under Homo sapiens [2], 2.3 in the data set filed under Homo sapiens [3] and 24 in the data set filed under Homo sapiens [6].

Consider `O=C1NCc2nc(-c3c(F)cccc3F)nc(Nc3ccc(CC(=O)N4CCOCC4)cc3)c21`, for which the Ratio Ki stood at 59 in the data set filed under Homo sapiens [2], 8.8 in the data set listed under Homo sapiens [3] and 47 in the data set filed under Homo sapiens [6].

Usually fraction unbound stands for free concentration divided by total concentration. In general, IC50 refers to the concentration that inhibits the measured activity by half. A lower IC50 goes with higher potency. Take `O=C1NCc2nc(-c3c(F)cccc3F)cc(Nc3ccc(C(=O)N4CCOCC4)cc3)c21`: the Ratio Ki stood at 92 in the data set filed under Homo sapiens [2], 8.6 in the data set filed under Homo sapiens [3] and 35 in the data set filed under Homo sapiens [6]. The fraction unbound in data set [7] turned out to be 0.25; in data set [10] it was 0.24. Moreover, in [4], the efflux ratio was found to be 9.1. Besides, the values for the fIC50 with Blood [8] and with Blood [11] were 0.16 µM and 0.86 µM, respectively. The figures for the IC50 in the data set on Blood [8] and in the data set on Blood [11] were 620 nM and 3600 nM, respectively. The solubility thermodynamic in data set [9] was 148 µM (≈ 66.7 µg/mL). The same compound registered a kinetic solubility in [5] of 170 µM (≈ 76.6 µg/mL).

Consider `O=C1NCc2nc(-c3c(F)cccc3F)cc(Nc3ccc(C(=O)N4CC[C@H](O)C4)cc3)c21`, for which the values for the Ratio Ki in the data set filed under Homo sapiens [2], in the data set filed under Homo sapiens [3] and in the data set filed under Homo sapiens [6] were 110, 14 and 110, respectively. Also, the efflux ratio in data set [4] was 60. This compound also gave a kinetic solubility in data set [5] of 290 µM (≈ 131 µg/mL).

As for `CCNC(=O)Cc1ccc(Nc2cc(-c3c(F)cccc3F)nc3c2C(=O)NC3)nc1`, the Ratio Ki amounted to 39 in the data set listed under Homo sapiens [2], 5.7 in the data set listed under Homo sapiens [3] and 72 in the data set listed under Homo sapiens [6]. Moreover, in data set [4], the efflux ratio was found to be 9.6. In [5], this compound displayed a solubility (kinetic) of 0.6 µM (≈ 0.254 µg/mL).

Regarding `NC(=O)c1ccc(NC(=O)c2ccc[nH]c2=O)cc1`, the Ratio Ki in the data set listed under Homo sapiens [2] stood at 1.4; in the data set filed under Homo sapiens [3], 2.3; in the data set filed under Homo sapiens [6], 1.1.

With `O=C1NCc2nc(-c3c(F)cccc3F)cc(Nc3ccc(C(=O)N4CCCC4)cn3)c21`, the Ratio Ki was 53 in the data set listed under Homo sapiens [2], 3.3 in the data set filed under Homo sapiens [3] and 23 in the data set filed under Homo sapiens [6].

As for `O=C1NCc2nc(-c3c(F)cccc3F)cc(Nc3ccc(N4CCC(O)CC4)cn3)c21`, the Ratio Ki was 160 in the data set filed under Homo sapiens [2], 25 in the data set listed under Homo sapiens [3] and 120 in the data set listed under Homo sapiens [6]. Further, the efflux ratio in data set [4] came out at 1.5. In addition, the kinetic solubility in data set [5] was 65 µM (≈ 28.4 µg/mL).

Regarding `CN1CCN(C(=O)Cc2ccc(Nc3nc(-c4c(F)cccc4F)nc4c3C(=O)NC4)cc2)CC1`, the Ratio Ki in the data set filed under Homo sapiens [2] is 89; in the data set listed under Homo sapiens [3] it was 10; in the data set filed under Homo sapiens [6], 52.

Consider `O=C1NCc2nc(-c3c(F)cccc3F)nc(Nc3ccc(C4CCNC4=O)cc3)c21` (stereo in doubt; 14b) [listing 1 of 2 here], for which the results for the Ratio Ki in the data set filed under Homo sapiens [2], in the data set listed under Homo sapiens [3] and in the data set filed under Homo sapiens [6] were 55, 15 and 96, respectively.

For the compound `CC(C)c1nc(Nc2ccc(C(=O)O)cc2)c2c(=O)[nH]ccc2n1`, the figures for the Ratio Ki in the data set listed under Homo sapiens [2], in the data set listed under Homo sapiens [3] and in the data set listed under Homo sapiens [6] were 5.3, 1.3 and 2.5, respectively.

Regarding `NC(=O)c1cnc(-c2c(F)cccc2F)nc1Nc1ccc(CC(=O)O)cc1`, the values for the Ratio Ki in the data set listed under Homo sapiens [2], in the data set listed under Homo sapiens [3] and in the data set listed under Homo sapiens [6] were 7.8, 95 and 74, respectively.

`N#Cc1cccc(F)c1-c1cc(Nc2ccc(N3CCOCC3)cn2)c2c(n1)CNC2=O`: the results for the Ratio Ki in the data set filed under Homo sapiens [2], in the data set filed under Homo sapiens [3] and in the data set filed under Homo sapiens [6] were 27, 170 and 26, respectively.

Turning to `CCNC(=O)C(C)(O)c1ccc(Nc2nc(-c3c(F)cccc3F)nc3c2C(=O)NC3)cc1` (stereo in doubt; 13b) [listing 2 of 2 here], the Ratio Ki in the data set listed under Homo sapiens [2] was determined as 27; in the data set listed under Homo sapiens [3] it was 13; in the data set filed under Homo sapiens [6] it was 123.

In data set [1], `O=C1NCc2nc(-c3c(F)cccc3F)nc(Nc3ccc(C4CCNC4=O)cc3)c21` (stereo in doubt; 14b) [listing 2 of 2 here] showed a Ki of 1.1 nM.

As to `CCNC(=O)Cc1ccc(Nc2nc(-c3c(F)cccc3F)nc3c2C(=O)NC3)cc1`, the Ratio Ki in the data set filed under Homo sapiens [2] was determined as 17; in the data set filed under Homo sapiens [3], 4.6; in the data set filed under Homo sapiens [6] it was 30. Besides, in data set [4], the efflux ratio worked out at 6.4. Moreover, in [5], the kinetic solubility was 1.2 µM (≈ 0.508 µg/mL).

On to `CCNC(=O)c1ccc(Nc2cc(-c3c(F)cccc3F)nc3c2C(=O)NC3)nc1`, for which the Ratio Ki in the data set listed under Homo sapiens [2] is 84; in the data set filed under Homo sapiens [3] it was 24; in the data set filed under Homo sapiens [6] it was 170. For the same compound, the fraction unbound came to 0.17 in [7] and 0.16 in [10]. Besides, the solubility thermodynamic in data set [12] was 255 µM (≈ 104 µg/mL); in data set [9], 15 µM (≈ 6.14 µg/mL). The efflux ratio in data set [4] is 7.2. Also, the fIC50 in the data set on Blood [8] is 0.27 µM; in the data set on Blood [11] it was 0.19 µM. For the same compound, the IC50 in the data set with Blood [8] was found to be 1600 nM; in the data set on Blood [11] it was 1200 nM. The solubility (kinetic) in data set [5] turned out to be 3.1 µM (≈ 1.27 µg/mL).

Regarding `CCNC(=O)C(C)(O)c1ccc(Nc2nc(-c3c(F)cccc3F)nc3c2C(=O)NC3)cc1` (stereo in doubt; 13a) [listing 1 of 2 here], the Ratio Ki in the data set filed under Homo sapiens [2] was 87; in the data set filed under Homo sapiens [3], 43; in the data set listed under Homo sapiens [6] it was 300.

In the case of `COc1ccc(Nc2nc(-c3c(F)cccc3F)nc3c2C(=O)NC3)cc1`, the Ratio Ki in the data set filed under Homo sapiens [2] came out at 25; in the data set listed under Homo sapiens [3] it was 11; in the data set listed under Homo sapiens [6] it was 240.

`O=C1NCc2nc(-c3c(F)cccc3F)cc(Nc3ccc(N4CCOCC4=O)cn3)c21`: the Ratio Ki in the data set listed under Homo sapiens [2] is 80; in the data set filed under Homo sapiens [3] it was 13; in the data set filed under Homo sapiens [6], 77. In addition, the solubility thermodynamic in [12] is 418 µM (≈ 183 µg/mL); in [9] it was 24 µM (≈ 10.5 µg/mL). Further, the efflux ratio in data set [4] is 7.8. In data set [5], this compound had a solubility (kinetic) of 8.9 µM (≈ 3.89 µg/mL).

As to `O=C1NCc2nc(-c3c(F)cccc3F)nc(Nc3ccc(C4CCCNC4=O)cc3)c21` (stereo in doubt; 15a), the Ratio Ki in the data set filed under Homo sapiens [2] turned out to be 77; in the data set listed under Homo sapiens [3] it was 19; in the data set listed under Homo sapiens [6] it was 83.

In the case of `O=C1NCc2nc(-c3c(F)cccc3F)nc(Nc3ccc(C4CCCNC4=O)cc3)c21` (stereo in doubt; 15b) [listing 1 of 2 here], in data set [1], the Ki was 3.9 nM.

Consider `O=C1NCc2nc(-c3c(F)cccc3F)cc(Nc3ccc(C(=O)N4CCOCC4)cn3)c21`, for which the Ratio Ki is 16 in the data set listed under Homo sapiens [2], 2.3 in the data set listed under Homo sapiens [3] and 18 in the data set filed under Homo sapiens [6].

For `CCNC(=O)C(C)(O)c1ccc(Nc2nc(-c3c(F)cccc3F)nc3c2C(=O)NC3)cc1` (stereo in doubt; 13a) [listing 2 of 2 here], in data set [4], the efflux ratio stood at 32.

For `CCNC(=O)c1ccc(Nc2cc(-c3c(F)cccc3Cl)nc3c2C(=O)NC3)nc1`, the Ratio Ki in the data set listed under Homo sapiens [2] is 7.3; in the data set listed under Homo sapiens [3], 1.8; in the data set listed under Homo sapiens [6], 12.

Take `O=C1NCc2nc(-c3c(F)cccc3F)nc(Nc3ccc(C4CCCNC4=O)cc3)c21` (stereo in doubt; 15b) [listing 2 of 2 here]: the Ratio Ki was determined as 130 in the data set listed under Homo sapiens [2], 10 in the data set filed under Homo sapiens [3] and 84 in the data set filed under Homo sapiens [6].

Take `CCNC(=O)c1ccc(Nc2cc(-c3c(F)cccc3C#N)nc3c2C(=O)NC3)nc1`: the figures for the Ratio Ki in the data set listed under Homo sapiens [2], in the data set filed under Homo sapiens [3] and in the data set listed under Homo sapiens [6] were 6.5, 69 and 15, respectively.

For `O=C1NCc2nc(-c3c(F)cccc3F)nc(Nc3ccc(C4CCNC4=O)cc3)c21` (stereo in doubt; 14a), the Ratio Ki in the data set listed under Homo sapiens [2] is 37; in the data set listed under Homo sapiens [3], 4; in the data set listed under Homo sapiens [6], 35.
